# Measurements taken from patent US20070213291A1, “Therapeutically useful synthetic oligonucleotides” (priority 1999, published 2007).
# How the values were obtained:
# [1] = system: A20 murine B leukemia cells; test: Inhibition of A20 cell proliferation (MTT); type: cell-based; details: 100 μg/ml, 48 h
# Experimental: (§1) Cells were seeded in 6 (1 ml/well), 24 (0.5 ml/well) or 96 (0.1 ml/well) well flat-bottom microplates and were maintained at 37° C. in a 5% CO2 atmosphere. Unless stated otherwise, 2.5×10^5 cells/ml were incubated with 0 μg/ml (control) and 100 μg/ml (treated) of 2 to 45 base sequences containing A, C, G and T for 48 h.
# (§2) Cell proliferation was measured using dimethylthiazol-diphenyl-tetrazolium (MTT) reduction (Mosman et al. J. Immunol. Methods 65:55, 1983). MTT was measured at a wavelength of 570 nm using a multiplate spectrophotometer reader (ELX800, Bio-TEK Instruments Inc., Winooski, Vt.).
# A20 murine leukemia B cells are a suspension tumor model. A20 murine leukemia B cells were incubated with 6 base GT sequences (Table 19).
# [2] = system: PC-3 human prostate cancer cells; test: Inhibition of PC-3 cell proliferation (MTT); type: cell-based; details: 100 μg/ml, 48 h, 5×10^5 cells/ml
# Experimental: as §1, §2
# PC-3 prostate cancer cells are a p53 mutated, androgen-independent human solid tumor model. PC-3 cells (5×10^5 cells/ml) were incubated with 3 and 6 base GT sequences (Table 8).
# [3] = system: human peripheral blood mononuclear cells; test: Cytokine production by human PBMC (ELISA); type: cell-based; details: PBMC of 7 healthy humans, 100 μg/ml, 48 h
# In short: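 PBMC from 7 healthy donors, Ficoll-isolated; 1×10^6 cells incubated with 100 μg/ml oligonucleotide sequence for 48 h at 37 °C, 5% CO2. IL-1beta, IL-6, IL-10, IL-12 (p70 plus free p40) and TNF-alpha measured by ELISA in supernatant, expressed as fold increase over control cells.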
# chimpanzee PBMCs = test: Cytokine production by chimpanzee PBMC (ELISA); type: cell-based; details: PBMC of 4 healthy chimpanzees, 100 μg/ml, 48 h
# Experimental: (§3) Unless stated otherwise, 1×10^6 cells were incubated with 100 μg/ml of each of the sequences tested for 48 h at 37° C. in 5% CO2. Production of cytokines IL-6, IL-10, IL-12, IL-1beta and TNF-alpha was determined in pg/ml in 100 μl of culture supernatant using the appropriate commercial ELISA (BioSource, Camarillo Calif.). The IL-12 ELISA measures both IL-12 p70 complex and free p40 subunit. Results are expressed as the “fold” (×) increase in cytokine production by treated cells compared to control cells.
# PBMCs were isolated from 4 healthy chimpanzees as in Example 35. Chimpanzee PBMCs were incubated with 6 base GT, AGT, CGT, AG, CG and GG sequences and production of the cytokines IL-10, IL-12 and TNF-alpha was determined (Table 41).
# rhesus monkey PBMCs = test: Cytokine production by rhesus monkey PBMC (ELISA); type: cell-based; details: PBMC of 4 healthy rhesus monkeys, 100 μg/ml, 48 h
# Experimental: as §3
# PBMCs were isolated from 4 healthy rhesus monkeys as in Example 35. PBMCs were incubated with 6 base GT, AGT, CGT, AG, CG ands GG sequences and production of the cytokines IL-6, IL-12 and TNF-alpha was determined (Table 42).
# [4] = system: LNCaP human prostate cancer cells; test: Inhibition of LNCaP cell proliferation (MTT); type: cell-based; details: 100 μg/ml, 48 h, 5×10^5 cells/ml
# Experimental: as §1, §2
# LNCaP prostate cancer cells are a TGF-beta 1 receptor negative, […], metastatic human solid tumor model. LNCaP cells (5×10^5 cells/ml) were incubated with 6 base GT sequences (Table 9).
# [5] = system: THP-1 human acute monocytic leukemia cells; test: Cytokine production by THP-1 cells (ELISA); type: cell-based; details: THP-1, 1×10^6 cells, 100 μg/ml, 48 h
# In short: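 Read-out is fold increase in supernatant cytokine versus control cells, measured by ELISA (IL-12 ELISA counts p70 complex plus free p40). Unless noted, sequences were tested at 100 μg/ml on 1×10^6 cells, incubated 48 h, 37° C, 5% CO2.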
# [6] = system: THP-1 human acute monocytic leukemia cells; test: Inhibition of THP-1 cell proliferation (MTT); type: cell-based; details: 100 μg/ml, 48 h, 1.6×10^6 cells/ml
# Experimental: as §1, §2
# THP-1 acute monocytic leukemia cells are a p53 null human suspension tumor model. THP-1 cells (1.6×10^6 cells/ml) were incubated with 6 base GT sequences (Table 10).
# [7] = system: Jurkat human leukemia T cells; test: Inhibition of Jurkat human leukemia T cell proliferation (MTT reduction); type: cell-based; details: 100 μg/ml sequence, 48 h, 2.5×10^5 cells/ml
# In short: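 Read-out is MTT absorbance at 570 nm after 48 h. Sequences of 2 to 45 bases (A, C, G, T) tested at 100 μg/ml against untreated control, with 2.5×10^5 Jurkat cells/ml held at 37° C under 5% CO2.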
# [8] = system: HL-60 human promyelocytic leukemia cells; test: Inhibition of HL-60 cell proliferation (MTT); type: cell-based; details: 100 μg/ml, 48 h
# Experimental: as §1, §2
# HL-60 promyelocytic leukemia cells are a p53 mutated human suspension tumor model. HL-60 cells were incubated with 6 base GT sequences (Table 6).
# [9] = system: MCF-7 human breast cancer cells; test: Inhibition of MCF-7 cell proliferation (MTT); type: cell-based; details: 100 μg/ml, 48 h, 5×10^5 cells/ml
# Experimental: as §1, §2
# MCF-7 human breast cancer cells are a caspase 3 negative, estrogen-dependent human solid tumor model. MCF-7 cells (5×10^5 cells/ml) were incubated with 3 and 6 base GT sequences (Table 7).
# caspase 3 and caspase 7 = test: Caspase 3 and caspase 7 activation by peptide-sequence constructs in Jurkat cells; type: cell-based, human; details: 72 h, present-tense example
# Experimental: Reactive carboxylate and reactive amine groups are deprotected subsequent to conjugation,
# To determine caspase activation, control and treated cells are washed, fixed, permeabilized and incubated with an FITC-conjugated antibody that recognizes the active form of the caspase (Pharmingen, San Diego, Calif.) using the conditions recommended by the manufacturer. Fluorescence associated with active caspase 3 is analyzed by flow cytometry on a FACSCALIBUR using the program CellQUEST (Becton Dickinson). Alternatively, caspase activation is determined colorimetrically using an assay based on the cleavage of a caspase-specific peptide conjugated to the color reporter molecule p-nitroanilide, which can be quantitated spectrophotometrically at a wavelength of 405 nm.
# Jurkat human leukemia T cells are incubated for 72 h with NH2—YVAD-CO-GG(GT)GG, NH2-DEVD-CO-GG(GT)GG, NH2—EGD-COO-GG(GT)GG, NH2-YVAD-CO-[…], NH2-DVED-CO-[…] and NH2—IEGD-CO-[…]. Caspase 3 and caspase 7 activation are determined.
substance,measurement,setting,value
GGTGGG [SEQ ID NO:24],% INHIBITION of A20 murine B leukemia cell proliferation,[1],9%
same,% INHIBITION of PC-3 human prostate cancer cell proliferation,[2],26%
same,IL-1 beta fold increase: mean +/− SD,[3],0.9 +/− 0.1 fold increase
same,IL-6 fold increase: mean +/− SD,[3],15.9 +/− 14.9 fold increase
same,IL-10 fold increase: mean +/− SD,[3],2.4 +/− 2.9 fold increase
same,IL-12 fold increase: mean +/− SD,[3],2.3 +/− 1.6 fold increase
same,IL-10 fold increase: mean +/− SD,chimpanzee PBMCs,2.9 +/− 1.5 fold increase
same,IL-12 fold increase: mean +/− SD,chimpanzee PBMCs,14.3 +/− 9.1 fold increase
same,TNF-alpha fold increase: mean +/− SD,chimpanzee PBMCs,11.9 +/− 7.0 fold increase
same,IL-10 fold increase: mean +/− SD,rhesus monkey PBMCs,1.0 +/− 0.1 fold increase
same,IL-12 fold increase: mean +/− SD,rhesus monkey PBMCs,11.2 +/− 4.8 fold increase
same,TNF-alpha fold increase: mean +/− SD,rhesus monkey PBMCs,14.5 +/− 5.4 fold increase
same,% INHIBITION of LNCaP human prostate cancer cell proliferation,[4],17%
same,↑ IL-6 (fold increase treated vs control cells),[5],6.9x
same,↑ IL-12 (fold increase treated vs control cells),[5]; p70 complex and free p40,3.7x
same,% INHIBITION of THP-1 human acute monocytic leukemia cell proliferation,[6],6%
same,% INHIBITION of Jurkat human leukemia T cell proliferation,[7],48%
same,% INHIBITION of HL-60 human promyelocytic leukemia cell proliferation,[8],18%
same,% INHIBITION of MCF-7 human breast cancer cell proliferation,[9],41%
NH2-DEVD-CO-GG(GT)GG [NH2-DEVD-CO-GT],processing of inactive caspase 3 and caspase 7 to active forms,caspase 3 and caspase 7,induce processing of inactive caspase 3 to active caspase 3 and of inactive caspase 7 to active caspase 7
NH2-DVED-CO-AACCACAAGCCCAAC [NH2-DVED-CO-ACG],processing of inactive caspase 3 and caspase 7 to active forms,caspase 3 and caspase 7,do not induce processing of inactive pro-caspase 3 to active caspase 3 or of inactive caspase 7 to active caspase 7
NH2-YVAD-CO-AACCACAAGCCCAAC [NH2—YVAD-CO-ACG],processing of inactive caspase 3 and caspase 7 to active forms,caspase 3 and caspase 7,do not induce processing of inactive pro-caspase 3 to active caspase 3 or of inactive caspase 7 to active caspase 7
NH2—EGD-COO-GG(GT)GG [NH2—IEGD-COO-GT],processing of inactive caspase 3 and caspase 7 to active forms,caspase 3 and caspase 7,induce processing of inactive caspase 3 to active caspase 3 and of inactive caspase 7 to active caspase 7
